Tests used:
Assay in all cases: Protein kinase selectivity panel
Format in all cases: biochemical
Conditions in all cases: 1.0 μM compound, 10 μM ATP
Flt3(h) = target: T1, Flt3(h) (Homo sapiens, UniProt P36888)
T1 sequence (P36888 27-993): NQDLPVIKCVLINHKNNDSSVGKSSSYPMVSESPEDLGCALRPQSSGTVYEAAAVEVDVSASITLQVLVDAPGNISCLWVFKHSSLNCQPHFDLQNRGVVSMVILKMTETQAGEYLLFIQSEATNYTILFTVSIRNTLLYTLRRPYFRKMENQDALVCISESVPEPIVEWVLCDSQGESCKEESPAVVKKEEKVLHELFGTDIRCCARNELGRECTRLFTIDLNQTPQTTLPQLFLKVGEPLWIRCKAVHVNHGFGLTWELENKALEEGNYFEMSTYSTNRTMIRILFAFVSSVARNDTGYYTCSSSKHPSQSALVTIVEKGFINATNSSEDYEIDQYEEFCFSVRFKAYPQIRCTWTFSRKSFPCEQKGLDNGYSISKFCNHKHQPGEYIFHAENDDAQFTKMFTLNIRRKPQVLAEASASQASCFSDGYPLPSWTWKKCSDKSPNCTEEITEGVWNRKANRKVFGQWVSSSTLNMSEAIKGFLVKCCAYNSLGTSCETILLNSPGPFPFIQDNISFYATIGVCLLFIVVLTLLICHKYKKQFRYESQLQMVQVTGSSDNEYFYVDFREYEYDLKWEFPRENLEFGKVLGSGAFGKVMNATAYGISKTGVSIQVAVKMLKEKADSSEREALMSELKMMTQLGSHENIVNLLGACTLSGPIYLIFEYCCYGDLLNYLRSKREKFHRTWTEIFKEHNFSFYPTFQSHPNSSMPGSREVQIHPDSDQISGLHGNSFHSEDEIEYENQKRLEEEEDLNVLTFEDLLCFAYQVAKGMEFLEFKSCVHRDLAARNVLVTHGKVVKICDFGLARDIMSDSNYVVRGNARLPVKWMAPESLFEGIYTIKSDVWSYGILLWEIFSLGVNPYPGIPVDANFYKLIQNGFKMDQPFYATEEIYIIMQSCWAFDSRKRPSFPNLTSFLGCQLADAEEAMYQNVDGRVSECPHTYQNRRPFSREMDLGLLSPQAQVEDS
Method in brief: (§1)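 Read-out is phosphorylation of the kinase's appropriate peptide/protein substrate, with and without 1.0 μM test compound. Assays used 10 μM ATP.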

PKD2(h) = target: T2, PKD2(h) (Homo sapiens, UniProt Q9BZL6)
T2 sequence (Q9BZL6 1-878): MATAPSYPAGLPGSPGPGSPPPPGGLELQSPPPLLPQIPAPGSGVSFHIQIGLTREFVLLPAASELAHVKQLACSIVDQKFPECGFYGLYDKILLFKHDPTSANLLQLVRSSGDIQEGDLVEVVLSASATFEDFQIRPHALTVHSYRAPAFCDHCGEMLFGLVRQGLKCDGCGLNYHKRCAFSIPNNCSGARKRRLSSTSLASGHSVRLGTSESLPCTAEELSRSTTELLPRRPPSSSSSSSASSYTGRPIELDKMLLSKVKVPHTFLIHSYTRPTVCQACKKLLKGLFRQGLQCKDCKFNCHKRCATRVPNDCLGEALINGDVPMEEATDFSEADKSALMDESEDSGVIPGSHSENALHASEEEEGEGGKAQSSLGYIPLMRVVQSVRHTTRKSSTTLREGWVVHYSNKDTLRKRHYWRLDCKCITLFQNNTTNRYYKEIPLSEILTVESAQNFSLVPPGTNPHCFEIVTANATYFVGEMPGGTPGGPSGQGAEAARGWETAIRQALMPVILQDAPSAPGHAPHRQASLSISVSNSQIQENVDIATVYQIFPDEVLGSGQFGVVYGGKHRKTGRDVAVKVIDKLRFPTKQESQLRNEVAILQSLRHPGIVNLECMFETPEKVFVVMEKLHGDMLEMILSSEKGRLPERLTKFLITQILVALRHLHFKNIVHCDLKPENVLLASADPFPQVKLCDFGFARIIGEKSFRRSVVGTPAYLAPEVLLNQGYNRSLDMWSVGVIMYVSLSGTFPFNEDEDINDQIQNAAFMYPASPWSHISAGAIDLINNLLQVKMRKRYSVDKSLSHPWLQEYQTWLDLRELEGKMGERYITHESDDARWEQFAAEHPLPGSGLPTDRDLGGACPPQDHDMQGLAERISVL
Method in brief: as §1

Bmx(h) = target: T3, Bmx(h) (Homo sapiens, UniProt P51813)
T3 sequence (P51813 1-675): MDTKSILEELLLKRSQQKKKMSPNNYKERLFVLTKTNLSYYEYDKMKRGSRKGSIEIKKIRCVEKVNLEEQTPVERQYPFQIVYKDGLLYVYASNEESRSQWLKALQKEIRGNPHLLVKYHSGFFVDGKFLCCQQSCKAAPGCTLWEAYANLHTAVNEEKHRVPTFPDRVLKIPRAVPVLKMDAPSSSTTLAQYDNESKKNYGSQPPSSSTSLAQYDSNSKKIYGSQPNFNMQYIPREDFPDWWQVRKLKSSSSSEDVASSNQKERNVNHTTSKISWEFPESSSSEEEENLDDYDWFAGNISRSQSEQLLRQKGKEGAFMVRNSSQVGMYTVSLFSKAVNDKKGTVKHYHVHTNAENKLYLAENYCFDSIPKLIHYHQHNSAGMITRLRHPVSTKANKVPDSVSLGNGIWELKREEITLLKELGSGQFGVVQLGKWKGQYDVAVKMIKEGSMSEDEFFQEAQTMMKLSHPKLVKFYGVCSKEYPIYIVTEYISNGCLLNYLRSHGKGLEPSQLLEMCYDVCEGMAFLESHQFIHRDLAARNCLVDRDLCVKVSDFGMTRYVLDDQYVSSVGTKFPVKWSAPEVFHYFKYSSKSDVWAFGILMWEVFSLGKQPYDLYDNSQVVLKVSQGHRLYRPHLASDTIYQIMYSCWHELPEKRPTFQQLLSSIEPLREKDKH
Method in brief: as §1

CDK7/cyclinH/MAT1(h) = CDK7/cyclinH/MAT1(h) (Homo sapiens, UniProt P50613)
CDK7/cyclinH/MAT1(h), sequence (P50613 whole entry): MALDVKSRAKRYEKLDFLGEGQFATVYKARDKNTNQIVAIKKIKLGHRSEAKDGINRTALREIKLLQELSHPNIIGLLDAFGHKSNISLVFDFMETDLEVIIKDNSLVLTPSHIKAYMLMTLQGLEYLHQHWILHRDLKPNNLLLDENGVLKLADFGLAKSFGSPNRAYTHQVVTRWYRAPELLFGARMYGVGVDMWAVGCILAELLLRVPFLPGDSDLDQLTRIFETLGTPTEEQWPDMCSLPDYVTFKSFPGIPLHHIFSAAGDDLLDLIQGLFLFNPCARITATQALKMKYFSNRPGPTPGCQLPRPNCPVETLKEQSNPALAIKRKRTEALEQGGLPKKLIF
CDK7/cyclinH/MAT1(h), sequence (P51946 whole entry partner): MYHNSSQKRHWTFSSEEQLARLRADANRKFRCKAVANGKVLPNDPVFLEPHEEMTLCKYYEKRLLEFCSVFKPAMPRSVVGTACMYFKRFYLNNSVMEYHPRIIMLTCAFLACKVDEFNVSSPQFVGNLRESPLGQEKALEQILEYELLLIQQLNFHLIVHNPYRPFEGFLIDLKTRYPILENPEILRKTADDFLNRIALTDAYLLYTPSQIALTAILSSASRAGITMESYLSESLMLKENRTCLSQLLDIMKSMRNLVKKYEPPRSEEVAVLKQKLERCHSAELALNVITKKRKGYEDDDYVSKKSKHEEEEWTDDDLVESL
CDK7/cyclinH/MAT1(h), sequence (P51948 whole entry partner): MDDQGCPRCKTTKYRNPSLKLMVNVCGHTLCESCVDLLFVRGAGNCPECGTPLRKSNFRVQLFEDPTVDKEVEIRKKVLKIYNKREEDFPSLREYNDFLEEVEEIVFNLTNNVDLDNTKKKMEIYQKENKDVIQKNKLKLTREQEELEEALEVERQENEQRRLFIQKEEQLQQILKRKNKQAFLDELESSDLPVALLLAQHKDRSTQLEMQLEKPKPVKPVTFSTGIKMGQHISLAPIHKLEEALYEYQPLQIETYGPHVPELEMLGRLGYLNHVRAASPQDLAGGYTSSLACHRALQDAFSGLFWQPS
Method in brief: as §1

Row | Compound | Activity at Protein Kinase Assays (% of control), Flt3(h) (Flt3(h)) | Activity at Protein Kinase Assays (% of control), PKD2(h) (PKD2(h)) | Activity at Protein Kinase Assays (% of control), Bmx(h) (Bmx(h)) | Activity at Protein Kinase Assays (% of control), CDK7/cyclinH/MAT1(h) (CDK7/cyclinH/MAT1(h))
1 | CN(C)c1nc2ccc1CCCCn1cc(c3ccccc31)C1=C(C(=O)NC1=O)c1cn(c3ccccc13)CCC2 [Cpd 1, 31-(dimethylamino)-5,15,25,32-tetraazaheptacyclo[28.2.2.1^5,12.1^18,25.0^6,11.0^13,17.0^19,24]hexatriaconta-1(32),6,8,10,12(36),13(17),18(35),19,21,23,30,33-dodecaene-14,16-dione] | 86 % of control | 100 % of control | 101 % of control | 89 % of control
2 | O=C1NC(=O)C2=C1c1cn(c3ccccc13)CCCc1ccc(c(N3CCCC3)n1)CCCn1cc2c2ccccc21 [Cpd 7, 31-pyrrolidin-1-yl-5,15,25,30-tetraazaheptacyclo[27.2.2.1^5,12.1^18,25.0^6,11.0^13,17.0^19,24]pentatriaconta-1(31),6,8,10,12(35),13(17),18(34),19,21,23,29,32-dodecaene-14,16-dione] | 85 % of control | 115 % of control | 176 % of control | 111 % of control
3 | O=C1NC(=O)C2=C1c1cn(c3ccccc13)CCCc1cc(nc(N3CCCC3)c1)CCCn1cc2c2ccccc21 [Cpd 6, 20-pyrrolidin-1-yl-4,14,19,26-tetraazaheptacyclo[24.6.1.1^7,14.1^18,22.0^2,6.0^8,13.0^27,32]pentatriaconta-1(33),2(6),7(35),8,10,12,18(34),19,21,27,29,31-dodecaene-3,5-dione] | 77 % of control | 103 % of control | 173 % of control | 107 % of control
4 | CN(C)c1cc2cc(n1)CCCn1cc(c3ccccc31)C1=C(C(=O)NC1=O)c1cn(c3ccccc13)CCC2 [Cpd 2, 20-(dimethylamino)-4,14,19,26-tetraazaheptacyclo[24.6.1.1^7,14.1^18,22.0^2,6.0^8,13.0^27,32]pentatriaconta-1(33),2(6),7(35),8,10,12,18(34),19,21,27,29,31-dodecaene-3,5-dione] | 71 % of control | 97 % of control | 159 % of control | 108 % of control

Source: patent US7759331B2, “Pyridine-containing macroheterococylic compounds as kinase inhibitors” (Janssen Pharmaceutica NV, priority 2006, dated 2010)
